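Briefly, cells in 96-well plates were exposed to five compound concentrations for 48 h, and endpoints were estimated by linear interpolation. At the TGI there is no net growth.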
What was measured:
Test in all cases: NCI anticancer screen, dose series, 48 h
HOP-62 NSCLC = tested on: HOP-62 NSCLC
UACC-257 melanoma = tested on: UACC-257 melanoma
SK-MEL-5 melanoma = tested on: SK-MEL-5 melanoma
SF-539 CNS = tested on: SF-539 CNS
NCI/ADR-RES ovarian = tested on: NCI/ADR-RES ovarian
SF-295 CNS = tested on: SF-295 CNS
ACHN renal = tested on: ACHN renal
MALME-3M melanoma = tested on: MALME-3M melanoma
T-47D breast = tested on: T-47D breast
HCT-116 colon = tested on: HCT-116 colon
M14 melanoma = tested on: M14 melanoma
HT29 colon = tested on: HT29 colon
OVCAR-3 ovarian = tested on: OVCAR-3 ovarian
786-0 renal = tested on: 786-0 renal
SF-268 CNS = tested on: SF-268 CNS
MOLT-4 leukemia = tested on: MOLT-4 leukemia
HCC-2998 colon = tested on: HCC-2998 colon
HCT-15 colon = tested on: HCT-15 colon
NCI-H460 lung = tested on: NCI-H460 lung
EKVX NSCLC = tested on: EKVX NSCLC
CAKI-1 renal = tested on: CAKI-1 renal
SK-OV-3 ovarian = tested on: SK-OV-3 ovarian
KM12 colon = tested on: KM12 colon
DU-145 prostate = tested on: DU-145 prostate
OVCAR-5 ovarian = tested on: OVCAR-5 ovarian
SNB-19 CNS = tested on: SNB-19 CNS
MDA-N = tested on: MDA-N
LOX IMVI melanoma = tested on: LOX IMVI melanoma
K-562 leukemia = tested on: K-562 leukemia
HS 578T breast = tested on: HS 578T breast
CCRF-CEM leukemia = tested on: CCRF-CEM leukemia
UO-31 renal = tested on: UO-31 renal
SNB-75 CNS = tested on: SNB-75 CNS
HOP-92 NSCLC = tested on: HOP-92 NSCLC
MDA-MB-435 = tested on: MDA-MB-435
SW-620 colon = tested on: SW-620 colon
TK-10 renal = tested on: TK-10 renal
MDA-MB-231 breast = tested on: MDA-MB-231 breast
NCI-H522 lung = tested on: NCI-H522 lung
U251 CNS = tested on: U251 CNS
RXF 393 renal = tested on: RXF 393 renal
SK-MEL-28 melanoma = tested on: SK-MEL-28 melanoma
SK-MEL-2 melanoma = tested on: SK-MEL-2 melanoma
NCI-H23 lung = tested on: NCI-H23 lung
SN12C renal = tested on: SN12C renal
PC-3 prostate = tested on: PC-3 prostate
UACC-62 melanoma = tested on: UACC-62 melanoma
OVCAR-8 ovarian = tested on: OVCAR-8 ovarian
BT-549 breast = tested on: BT-549 breast
IGROV1 ovarian = tested on: IGROV1 ovarian
OVCAR-4 ovarian = tested on: OVCAR-4 ovarian
COLO 205 colon = tested on: COLO 205 colon
MCF7 breast = tested on: MCF7 breast
A549 NSCLC = tested on: A549 NSCLC
A498 renal = tested on: A498 renal
RPMI-8226 leukemia = tested on: RPMI-8226 leukemia
SR leukemia = tested on: SR leukemia
NCI-H226 lung = tested on: NCI-H226 lung

O=C(/C=C/c1ccc(O)c(O)c1)OCCCOC(=O)/C=C/c1ccc(O)c(O)c1
TGI (HOP-62 NSCLC): 67.9 µM | TGI (UACC-257 melanoma): > 100 µM | TGI (SK-MEL-5 melanoma): 32.9 µM | TGI (SF-539 CNS): > 100 µM | TGI (NCI/ADR-RES ovarian): > 100 µM | TGI (SF-295 CNS): 53.6 µM | TGI (ACHN renal): > 100 µM | TGI (MALME-3M melanoma): > 100 µM | TGI (T-47D breast): > 100 µM | TGI (HCT-116 colon): > 100 µM | TGI (M14 melanoma): 65.8 µM | TGI (HT29 colon): > 100 µM | TGI (OVCAR-3 ovarian): 32.8 µM | TGI (786-0 renal): > 100 µM | TGI (SF-268 CNS): > 100 µM | TGI (MOLT-4 leukemia): > 100 µM | TGI (HCC-2998 colon): > 100 µM | TGI (HCT-15 colon): > 100 µM | TGI (NCI-H460 lung): > 100 µM | TGI (EKVX NSCLC): > 100 µM | TGI (CAKI-1 renal): > 100 µM | TGI (SK-OV-3 ovarian): > 100 µM | TGI (KM12 colon): > 100 µM | TGI (DU-145 prostate): > 100 µM | TGI (OVCAR-5 ovarian): > 100 µM | TGI (SNB-19 CNS): > 100 µM | TGI (MDA-N): 80.1 µM | TGI (LOX IMVI melanoma): 69.6 µM | TGI (K-562 leukemia): > 100 µM | TGI (HS 578T breast): > 100 µM | TGI (CCRF-CEM leukemia): > 100 µM | TGI (UO-31 renal): > 100 µM | TGI (SNB-75 CNS): > 100 µM | TGI (HOP-92 NSCLC): 84.4 µM | TGI (MDA-MB-435): > 100 µM | TGI (SW-620 colon): > 100 µM | TGI (TK-10 renal): > 100 µM | TGI (MDA-MB-231 breast): > 100 µM | TGI (NCI-H522 lung): 40.6 µM | TGI (U251 CNS): > 100 µM | TGI (RXF 393 renal): 79.6 µM | TGI (SK-MEL-28 melanoma): > 100 µM | TGI (SK-MEL-2 melanoma): > 100 µM | TGI (NCI-H23 lung): 78 µM | TGI (SN12C renal): > 100 µM | TGI (PC-3 prostate): > 100 µM | TGI (UACC-62 melanoma): 49.4 µM | TGI (OVCAR-8 ovarian): > 100 µM | TGI (BT-549 breast): > 100 µM | TGI (IGROV1 ovarian): > 100 µM | TGI (OVCAR-4 ovarian): > 100 µM | TGI (COLO 205 colon): > 100 µM | TGI (MCF7 breast): > 100 µM | TGI (A549 NSCLC): > 100 µM | TGI (A498 renal): > 100 µM | TGI (RPMI-8226 leukemia): > 100 µM | TGI (SR leukemia): > 100 µM

Nc1ncnc2c1ncc(=O)n2C1CC(O)C(CO)O1 (centres undefined)
TGI (NCI-H226 lung): > 100 µM | TGI (HOP-62 NSCLC): > 100 µM | TGI (UACC-257 melanoma): > 100 µM | TGI (SK-MEL-5 melanoma): > 100 µM | TGI (SF-539 CNS): > 100 µM | TGI (NCI/ADR-RES ovarian): > 100 µM | TGI (SF-295 CNS): > 100 µM | TGI (ACHN renal): > 100 µM | TGI (MALME-3M melanoma): > 100 µM | TGI (T-47D breast): > 100 µM | TGI (HCT-116 colon): > 100 µM | TGI (M14 melanoma): > 100 µM | TGI (HT29 colon): > 100 µM | TGI (OVCAR-3 ovarian): > 100 µM | TGI (786-0 renal): > 100 µM | TGI (SF-268 CNS): > 100 µM | TGI (MOLT-4 leukemia): > 100 µM | TGI (HCC-2998 colon): > 100 µM | TGI (HCT-15 colon): > 100 µM | TGI (NCI-H460 lung): > 100 µM | TGI (EKVX NSCLC): > 100 µM | TGI (CAKI-1 renal): > 100 µM | TGI (SK-OV-3 ovarian): > 100 µM | TGI (KM12 colon): > 100 µM | TGI (DU-145 prostate): > 100 µM | TGI (OVCAR-5 ovarian): > 100 µM | TGI (SNB-19 CNS): > 100 µM | TGI (MDA-N): > 100 µM | TGI (LOX IMVI melanoma): > 100 µM | TGI (K-562 leukemia): > 100 µM | TGI (HS 578T breast): > 100 µM | TGI (CCRF-CEM leukemia): > 100 µM | TGI (UO-31 renal): > 100 µM | TGI (SNB-75 CNS): > 100 µM | TGI (HOP-92 NSCLC): > 100 µM | TGI (MDA-MB-435): > 100 µM | TGI (SW-620 colon): > 100 µM | TGI (TK-10 renal): > 100 µM | TGI (MDA-MB-231 breast): > 100 µM | TGI (NCI-H522 lung): > 100 µM | TGI (U251 CNS): > 100 µM | TGI (SK-MEL-28 melanoma): > 100 µM | TGI (SK-MEL-2 melanoma): > 100 µM | TGI (NCI-H23 lung): > 100 µM | TGI (SN12C renal): > 100 µM | TGI (PC-3 prostate): > 100 µM | TGI (UACC-62 melanoma): > 100 µM | TGI (OVCAR-8 ovarian): > 100 µM | TGI (BT-549 breast): > 100 µM | TGI (IGROV1 ovarian): > 100 µM | TGI (OVCAR-4 ovarian): > 100 µM | TGI (COLO 205 colon): > 100 µM | TGI (MCF7 breast): > 100 µM | TGI (A549 NSCLC): > 100 µM | TGI (A498 renal): > 100 µM | TGI (RPMI-8226 leukemia): > 100 µM | TGI (SR leukemia): > 100 µM
